Tested on: HIV-1
Conditions: cMAGI/MAGI cells; for IC50: 50% reduction in infectious virus titer; for IC90: 90% reduction in infectious virus titer
Excerpt: The number of stained nuclei can thus be interpreted as equal to the number of infectious virions in the challenge inoculum if there is only one round of infection prior to staining.

Row | Substance | IC50 | IC90
1 | Pegylated T20 with mPEG10k-propionaldehyde [Example 3] | 0.261 µg/mL | 3.074 µg/mL
2 | Pegylated T20 with PEG10K-butanoaldehyde [Example 2] | 0.266 µg/mL | 2.536 µg/mL
